Data: patent US7816410B2, “Pesticidal compositions” (priority 2003, dated 2010)

Key:
Format in all cases: in vivo
Conditions in all cases: 15 gai/hL
[1] = tested on: glasshouse whitefly (Trialeurodes vaporariorum); experiment: Whitefly adult repellence (protectant) test
Excerpt: The aim of this study was to determine the efficacy of the compositions of the invention on separate life stages of the glasshouse whitefly (Trialeurodes vaporariorum). A second test was to determine the efficacy of composition B as a curative treatment against whitefly nymphs and the third test was to determine the effects of the composition as a (repellent) protectant spray against whitefly adults. All treatments were applied to tobacco plants (var. Tobacco nicotiana) using a hand-held atomiser (CEME-984), applied to both surfaces of the leaf, to incipient run-off. The composition was applied at 5000, 1000, 200, 100 and 50 mL product/hL, Imidacloprid (reference item) was applied at 15 gai/hL and controls were sprayed with deionised water only. Three replicate plants were sprayed for each treatment. The treated plants were maintained in a controlled environment room at 22.9-34.4° C., with lighting on a 16 h light/8 h dark cycle. Light intensity was recorded as 870-1464 lux. Relative humidity was recorded as being between 25.1-85.2%. The adult protectant test, assessed the numbers of alive adults on treated leaves after immersion in an adult whitefly infested chamber, 15 and 18 days after application.

[2] = tested on: glasshouse whitefly (Trialeurodes vaporariorum); experiment: Whitefly ovicide protectant test
Description: (§1) The aim of this study was to determine the efficacy of the compositions of the invention on separate life stages of the glasshouse whitefly (Trialeurodes vaporariorum). Three studies were undertaken, the first to determine the efficacy of the composition of the invention as an ovicide in both protectant and curative treatments. The following composition (Composition B) was prepared: All treatments were applied to tobacco plants (var. Tobacco nicotiana) using a hand-held atomiser (CEME-984), applied to both surfaces of the leaf, to incipient run-off. The composition was applied at 5000, 1000, 200, 100 and 50 mL product/hL, Imidacloprid (reference item) was applied at 15 gai/hL and controls were sprayed with deionised water only. Three replicate plants were sprayed for each treatment. The treated plants were maintained in a controlled environment room at 22.9-34.4° C., with lighting on a 16 h light/8 h dark cycle. Light intensity was recorded as 870-1464 lux. Relative humidity was recorded as being between 25.1-85.2%. For the ovicide test, plants were treated (both infested and uninfested with eggs). For the curative test, leaf discs were taken and egg numbers counted. For the protectant test, treated plants were infested after treatment then leaf discs taken with known numbers of eggs. […]

[3] = tested on: glasshouse whitefly (Trialeurodes vaporariorum); experiment: Whitefly ovicide curative test
Description: as §1

[4] = tested on: glasshouse whitefly (Trialeurodes vaporariorum); experiment: Whitefly nymph curative test
Excerpt: The aim of this study was to determine the efficacy of the compositions of the invention on separate life stages of the glasshouse whitefly (Trialeurodes vaporariorum).
A second test was to determine the efficacy of composition B as a curative treatment against whitefly nymphs and the third test was to determine the effects of the composition as a (repellent) protectant spray against whitefly adults.
All treatments were applied to tobacco plants (var. Tobacco nicotiana) using a hand-held atomiser (CEME-984), applied to both surfaces of the leaf, to incipient run-off. The composition was applied at 5000, 1000, 200, 100 and 50 mL product/hL, Imidacloprid (reference item) was applied at 15 gai/hL and controls were sprayed with deionised water only.
Three replicate plants were sprayed for each treatment. The treated plants were maintained in a controlled environment room at 22.9-34.4° C., with lighting on a 16 h light/8 h dark cycle. Light intensity was recorded as 870-1464 lux. Relative humidity was recorded as being between 25.1-85.2%.
For the curative nymph test, leaves with nymphs 7-12 days old were treated and assessments of mortality made at 4, 7 and 10 days after application.

O=[N+]([O-])NC1=NCCN1Cc1ccc(Cl)nc1 [Imidacloprid]
number of adult whitefly per leaf ([1]; 15 DAA): 0
number of adult whitefly per leaf ([1]; 18 DAA): 0
percentage whitefly egg hatch ([2]; 1 DAA): 0.0%
percentage whitefly egg hatch ([2]; 3 DAA): 0.0%
percentage whitefly egg hatch ([2]; 7 DAA): 0.0%
percentage whitefly egg hatch ([3]; 1 DAA): 0.0%
percentage whitefly egg hatch ([3]; 3 DAA): 75.2%
percentage whitefly egg hatch ([3]; 7 DAA): 91.4%
percentage whitefly nymph mortality ([4]; 4 DAA): 100.0%
percentage whitefly nymph mortality ([4]; 7 DAA): 100.0%
percentage whitefly nymph mortality ([4]; 10 DAA): 100.0%
